Reference: patent US8921366B2, “Substituted triazolo-pyridazine derivatives” (Concert Pharmaceuticals, Inc., priority 2008, dated 2014)

How the values were obtained:
[1] = Metabolic stability in rat liver microsomes; type: in vitro ADME; settings: for stability in rat microsomes / parent compound remained intact: 30 minutes incubation; for half-life at 0.25 µM: pH 7.4, calculated from slope of ln % parent remaining vs time, read-out: in vitro half-life
Procedure: (§1) Human liver microsomes (20 mg/mL) and rat liver microsomes (20 mg/mL) were obtained from Xenotech, LLC (Lenexa, Kans.). β-nicotinamide adenine dinucleotide phosphate, reduced form (NADPH), magnesium chloride (MgCl2), and dimethyl sulfoxide (DMSO) were purchased from Sigma-Aldrich. 7.5 mM stock solutions of test compounds (L-838417, Compound 101, Compound 103, Compound 104 and Compound 105) were prepared in DMSO. The 7.5 mM stock solutions were diluted to 12.5 μM in acetonitrile (ACN). The 20 mg/mL […] were diluted to […] in 0.1 M potassium phosphate buffer, pH 7.4, containing 3 mM MgCl2. The diluted microsomes (375 μL) were added to wells of a 96-well deep-well polypropylene plate in triplicate. 10 μL of the 12.5 μM test compound was added to the microsomes and the mixture was pre-warmed for 10 minutes. Reactions were initiated by addition of 125 μL pre-warmed NADPH solution. The final reaction volume is 0.5 mL and contained 0.5 mg/mL human liver microsomes, 0.25 μM test compound, and 2 mM NADPH in 0.1 M potassium phosphate buffer, pH 7.4, and 3 mM MgCl2. The reaction mixtures are incubated at 37° C., and 50 μL aliquots were removed at 0, 5, 10, 20, and 30 minutes and added to shallow-well 96-well plates which contained 50 μL of ice-cold ACN with internal standard to stop the reactions. The plates were stored at 4° C. for 20 minutes after which 100 μL of water was added to the wells of the plate before centrifugation to pellet precipitated proteins. Supernatants were transferred to another 96-well plate and analyzed for amounts of parent remaining by LC-MS/MS using an Applied Bio-systems API 4000 mass spectrometer. 7-ethoxycoumarin (1 μM) was used as a positive control. The in vitro t1/2s for test compounds were calculated from the slopes of the linear regression of % parent remaining (ln) vs incubation time relationship, using the formula: in vitro t1/2=0.693/k, where k=−[slope of linear regression of % parent remaining(ln) vs incubation time] Data analysis is performed using Microsoft Excel Software.

[2] = Metabolic stability in human liver microsomes; type: in vitro ADME; settings: for stability in human liver microsomes: 30 minute incubation
Procedure: as §1

[3] = Pharmacokinetics after oral administration to rats; type: in vivo, Sprague-Dawley rats; settings: for Cmax / AUC(0-t): rat, plasma, oral gavage, 1 mg/kg each as 1:1:1 mixture, male Sprague-Dawley rats; for AUC(0-t): read-out: AUC0-6; for AUC0-6 % Change over L-838417 / AUC0-6 relative to undeuterated L-838417 / Cmax % Change over L-838417 / Cmax relative to L-838417: oral, rats
Procedure: (§2) Three male Sprague-Dawley rats (200-250 g each) were cannulated in the jugular vein and were administered a single dose containing 1 mg/kg each of L-838417, Compound 103 and Compound 105 (as a 1:1:1 mixture containing 1 mg/mL of each of the three compounds in 10% dimethyl sulfoxide (DMSO), 10% N,N-dimethylacetamide (DMA), and 60% polyethylene glycol (PG) through the jugular cannula. Three additional male Sprague-Dawley rats (200-250 g each) were administered a single dose containing 1 mg/kg each of L-838417, Compound 103 and Compound 105 (as a 1:1:1 mixture containing 1 mg/mL of each of the three compounds in 10% dimethyl sulfoxide (DMSO), 10% N,N-dimethylacetamide (DMA), and 60% polyethylene glycol (PG) by oral gavage. Blood (0.25 mL) from intravenously treated test rats was collected retro-orbitally at 2, 5, 15, and 30 minutes, and 1, 2, 4, and 6 hours post-dosing. Blood (0.25 mL) from orally treated test rats was collected retro-orbitally at 5, 15, 30, and 45 minutes, and 1, 2, 4, and 6 hours post-dosing. Blood was collected into tubes containing K2EDTA as anticoagulant at the above mentioned time points. Blood samples were stored on ice and then centrifuged to obtain plasma. The plasma (˜[…]) was aliquoted into deep 96-well plates and stored at −80° C. until analysis by LC-MS/MS using an Applied Bio-systems API 4000 mass spectrometer.

[4] = Pharmacokinetics after intravenous administration to rats; type: in vivo, Sprague-Dawley rats; settings: for clearance / half-life / AUC(0-t): rat, plasma, 1 mg/kg each as 1:1:1 mixture, male Sprague-Dawley rats; for AUC(0-t): read-out: AUC0-6; for AUC0-6 % Change over L-838417 / AUC0-6 relative to undeuterated L-838417 / CL % Change over L-838417 / cleared more slowly than L-838417 / longer half-life than undeuterated L-838417 / t1/2 % Change over L-838417: rats
Procedure: as §2

stability in rat microsomes [1] | stability in human liver microsomes [2] | Cmax [3] [ng/mL] | AUC(0-t) [3] [ng·h/mL] | parent compound remained intact [1] | half-life at 0.25 µM [1] [min] | clearance [4] [mL/min/kg] | half-life [4] [min] | AUC(0-t) [4] [ng·h/mL] | AUC0-6 % Change over L-838417 [3] | AUC0-6 relative to undeuterated L-838417 [3] | Cmax % Change over L-838417 [3] | Cmax relative to L-838417 [3] | AUC0-6 % Change over L-838417 [4] | AUC0-6 relative to undeuterated L-838417 [4] | CL % Change over L-838417 [4] [%] | cleared more slowly than L-838417 [4] | longer half-life than undeuterated L-838417 [4] | t1/2 % Change over L-838417 [4] | also measured | SMILES
stable | stable |  |  |  |  |  |  |  |  |  |  |  |  |  |  |  |  |  |  | [2H]C([2H])([2H])n1ncnc1COc1nn2c(-c3cc(F)ccc3F)nnc2cc1C(C([2H])([2H])[2H])(C([2H])([2H])[2H])C([2H])([2H])[2H] [Compound 104, 7-(tert-Butyl-d9)-3-(2,5-difluorophenyl)-6-((1-(methyl-d3)-1H-1,2,4-triazol-5-yl)-methoxy)-[1,2,4]triazolo[4,3-b]pyridazine]
 |  | 128 ± 40 | 491 ± 95 | approximately 70% | 50.5 | 18.3 | 42 ± 2.4 | 831 ± 86 |  |  |  |  |  |  |  |  |  |  | parent compound remained intact ([2]; 30 minutes incubation, 0.25 μM test compound, 37° C.): approximately 70%; half-life at 0.25 µM ([2]; pH 7.4, calculated from slope of ln % parent remaining vs time, read-out: in vitro half life): 54.4 min | Cn1ncnc1COc1nn2c(-c3cc(F)ccc3F)nnc2cc1C(C)(C)C [Compound L-838417, 7-tert-butyl-3-(2,5-difluorophenyl)-6-(1-methyl-1H-1,2,4-triazol-5-ylmethoxy)[1,2,4]triazolo[4,3-b]pyridazine, reference compound]
stable | stable | 277 ± 76 | 1260 ± 289 |  |  | 8 | 75 ± 8.4 | 1920 ± 200 | +156% | greater than two and a half-fold higher | +116% | greater than two-fold higher | +131% | greater than two-fold higher | −62 | approximately 60% | approximately 80% | +79% |  | [2H]C([2H])([2H])C(c1cc2nnc(-c3cc(F)ccc3F)n2nc1OCc1ncnn1C)(C([2H])([2H])[2H])C([2H])([2H])[2H] [Compound 103, 7-(tert-Butyl-d9)-3-(2,5-difluorophenyl)-6-((1-methyl-1H-1,2,4-triazol-5-yl)methoxy)-[1,2,4]triazolo[4,3-b]pyridazine]
stable | stable | 280 ± 80 | 1250 ± 272 |  |  | 7.67 | 76.2 ± 8.4 | 1960 ± 190 | +154% | greater than two and a half-fold higher | +119% | greater than two-fold higher | +136% | greater than two-fold higher | −60 | approximately 60% | approximately 80% | +81% |  | [2H]C([2H])(Oc1nn2c(-c3cc(F)ccc3F)nnc2cc1C(C([2H])([2H])[2H])(C([2H])([2H])[2H])C([2H])([2H])[2H])c1ncnn1C([2H])([2H])[2H] [Compound 105, 7-(tert-Butyl-d9)-3-(2,5-difluorophenyl)-6-((1-(methyl-d3)-1H-1,2,4-triazol-5-yl)-1,1-d2-methoxy)-[1,2,4]triazolo[4,3-b]pyridazine]
 | stable |  |  | approximately 70% | 52.7 |  |  |  |  |  |  |  |  |  |  |  |  |  |  | [2H]C([2H])(Oc1nn2c(-c3cc(F)ccc3F)nnc2cc1C(C)(C)C)c1ncnn1C([2H])([2H])[2H] [Compound 101, 7-tert-Butyl-3-(2,5-difluorophenyl)-6-((1-(methyl-d3)-1H-1,2,4-triazol-5-yl)-1,1-d2-methoxy)-[1,2,4]triazolo[4,3-b]pyridazine]
